{"source": "patent US20020183388A1", "about": "“Use of retinoids plus histone deacetylase inhibitors to inhibit the growth of solid tumors” (priority 2001, published 2002)", "key": {"[1]": {"system": "SK-RC-01 human renal carcinoma cells", "experiment": "Growth assay of SK-RC-01 cells, cell number counted", "conditions": "for inhibition of cell growth (FIG. 7): retinoic acid", "description": "Trichostatin A (Wako Pure Chemical Industries, Ltd., Osaka, Japan) was dissolved in 5 ml of EtOH to make a 1 mg/ml stock and sodium phenylbutyrate (NaPBA, Triple Crown America, Perkasie, Pa.) was prepared weekly from the powdered form to make a 25 mM stock solution. Cell lines were maintained in Minimal Essential Medium supplemented with 7% fetal calf serum, non-essential amino acids, and 1% penicillin/streptomycin (7% MEM).\n(§2) 24 well tissue culture dishes were seeded with cells in 1 mL tissue culture medium (Clonetics) at 10^4 cells/well. Cells were incubated overnight at 37° C. in 10% CO2. Fresh medium containing drugs: Ethanol control (EtOH), 1 μM retinoic acid (RA), 2ng/mL trichostatin A (TSA), 25 μM sodium phenylbutyrate (PBa), and combinations of these were added the next day (day zero). Fresh medium containing drugs was added on days 3 and 5. Cells were trypsinized on days 0, 3, 5, and 7 and cell number was determined using a Z1 Coulter particle counter. […] Error bars are the standard error mean (SEM) of 4 replicate wells.\nCells were treated as indicated. The cell number was counted at day 7.\nThe cell number was counted on day 7."}, "[2]": {"system": "HMEC normal human mammary epithelial cells (primary cultures)", "experiment": "Growth assay of HMEC cells, cell number counted", "assay_type": "cell-based", "conditions": "cells counted days 0, 3, 5, 7, 1 μM retinoic acid, 2 ng/ml TSA, 25 μM phenylbutyrate", "procedure": "Also used were HMEC cells, which are cells from a normal human mammary epithelial cell line (primary cultures).\n(§1) Data was plotted using Prism 3.0.\nThe drugs were added as described above, and cells were counted on days 0, 3, 5, and 7. […] However, in the body, most normal cells are not rapidly dividing as tumor cells are. […] This experiment was primarily performed in order to determine if the retinoid and histone deacetylase inhibitor combination worked similarly in tumor and normal epithelial cells."}, "[3]": {"system": "SK-RC-45 human renal carcinoma cells", "experiment": "Growth assay of SK-RC-45 cells, cell number counted", "description": "Liposome encapsulated ATRA (ATRA-IV, Antigenics Inc., New York, N.Y.) was reconstituted from 100 mg vials with 50 ml of 0.9% saline. Powdered ATRA was dissolved in EtOH to make a 1 mM ATRA (Sigma, St. Louis, Mo.) stock which was stored at −80° C. Trichostatin A (Wako Pure Chemical Industries, Ltd., Osaka, Japan) was dissolved in 5 ml of EtOH to make a 1 mg/ml stock and sodium phenylbutyrate (NaPBA, Triple Crown America, Perkasie, Pa.) was prepared weekly from the powdered form to make a 25 mM stock solution. Cell lines were maintained in Minimal Essential Medium supplemented with 7% fetal calf serum, non-essential amino acids, and 1% penicillin/streptomycin (7% MEM). Empty liposomes (provided by Antigenics Inc.) were diluted in 10 ml of 0.9% saline to equal the same concentration of liposomes in the lipoATRA.\nas §2\nCells were treated as indicated. The cell number was counted on day 7.\nCells were treated as indicated and cell number was counted."}, "[4]": {"system": "PC-3 human prostate cancer cells", "experiment": "Growth assay of PC-3 cells, cell number counted", "assay_type": "cell-based", "conditions": "day 7; low dose TSA; drugs added only once on day 0", "procedure": "as §1\nResults of growth assays of the human prostate cancer cell line PC-3, are depicted in FIG. 20. Cells were treated as indicated. Cell number was counted on days 0, 3, 5, and 7. Drugs were added only once on day 0. TSA alone, retinoic acid alone, and retinol alone each inhibited cell growth by approximately 20% at day 7. The combination of low dose TSA plus retinoic acid or low dose TSA plus retinol inhibited cell growth by almost 60%."}, "[5]": {"system": "SK-RC-39 human renal carcinoma cells", "experiment": "Growth assay of SK-RC-39 cells, cell number counted", "assay_type": "cell-based", "conditions": "low dose TSA", "procedure": "as §1\nThe cells were counted at day 7. A small amount of ethanol was added to the control cells, as a vehicle and solvent for the retinoic acid.\nCulture conditions were as shown. […] The term EtOH indicates the control cells, treated with a very low amount of ethanol, the same amount used to dissolve retinoic acid."}, "[6]": {"system": "MB-435 human breast cancer cells", "experiment": "Growth assay of MB-435 cells by MTT", "assay_type": "cell-based", "procedure": "96 well tissue culture dishes were seeded with 10^4 cells/well in 200 μL DME tissue culture medium supplemented with 10% fetal calf serum (FCS).\nThis assay detects color which is proportional to the number of cells present. Tissue culture medium containing drugs was removed and 200 µL of DME containing 2 mg/mL MTT ((3-4, 5-dimethyl thiazol-2yl) 2,5-diphenyltetrazolium bromide) was added to each well. Plates were incubated at 37° C. and 10% CO2 for 30 minutes. Medium containing MTT was then removed and the cells were washed once with PBS. Following removal of the PBS, 200 μL DMSO was added to each well and plates were placed on a rotating platform shaker for 5 minutes. Results were obtained by reading the absorbance at a wavelength of 550 nm using a spectrophotometer. Data was plotted using Prism 3.0.\nCells were plated in wells on day 0. Drugs were added on day 0 and again on days 3 and 5. The MTT assay was carried out on days 5 and 7. 1 μM of retinoic acid was used vs. 1 μM of liposomal retinoic acid (ATRA-IV). A very low dose (2 ng/ml) of trichostatin A (TSA) was also used. In addition, another inhibitor of histone deacetylases, 500 μM phenylbutyrate, was used. Various combinations of the drugs were also used in the growth assays.\nCells were treated as indicated."}, "[7]": {"system": "SK-RC-39 cells (subcutaneous xenograft)", "experiment": "Human tumor xenograft model in nu/nu mice", "assay_type": "in vivo", "procedure": "Forty Swiss nu/nu mice were injected in the right flank subcutaneously with 5×10^6 SK-RC-39 cells that had been cultured in 7% MEM and then trypsinized. Four days later, four cohorts of 10 mice each began to receive one tail vein injection of TSA or control and one injection of ATRA-IV or control every Monday, Wednesday and Friday for the duration of the experiment. The four treatment groups were as follows: (1) PBS with 1% EtOH+empty liposomes; (2) LipoATRA (7.4-8.1 mg/kg)+PBS with 1% EtOH; (3) TSA ([…])+empty liposomes; and (4) TSA+LipoATRA. The study ended in the eighth week of treatment and at least six animals remained in each arm at the conclusion of the study and were considered evaluable. The animals tolerated the treatment well and gained weight throughout the treatment course. […] The tumor growth inhibition observed in the TSA+LipoATRA arm was much greater than that observed in the control arm. While the difference between the TSA+LipoATRA and the TSA+empty liposome arm was significant (FIG. 16), both of these treatments led to a very statistically significant difference in growth as compared to the control arm."}, "[8]": {"system": "LnCap human prostate cancer cells", "experiment": "Growth assay of LnCap cells, cell number counted", "assay_type": "cell-based", "conditions": "168 h, day 7, 1 μM retinoic acid, 1 μM retinol, 0.5 μM valproic acid, drugs added only once at time 0, read-out: inhibition of cell growth (FIG. 17)", "procedure": "as §1\nCell number was counted on days 0, 3, 5, and 7. In this experiment, retinoic acid was employed alone at 1 μM. Retinol (vitamin A) was employed at 1 μM. Valproic acid, a histone deacetylase inhibitor, was employed at 0.5 μM alone. Combinations of these drugs were also used. All drugs were added only once, at time 0, in this experiment. […] Valproic acid (VPA) alone inhibited cell growth by approximately 40%. The combination of retinoic acid plus VPA inhibited cell growth by 75%, as did the combination of valproic acid plus retinol."}, "[9]": {"system": "SCC-15 human head and neck cancer cells", "experiment": "Growth assay of SCC-15 cells, cell number counted", "assay_type": "cell-based", "conditions": "SCC-15, 168 h, day 7, TSA 8 ng/ml, 1 μM retinoic acid, 1 μM retinol, drugs added only at time 0, read-out: inhibition of cell growth (FIG. 19)", "procedure": "as §1\nCells were treated as indicated. Drugs were added only at time 0. Cell number was counted on days 0, 3, 5, and 7.\nCell number was counted on days 0, 3, 5, and 7. In this experiment, a low dose of TSA (8 ng/ml) was used alone or in combination with 1 μM retinoic acid or 1 μM retinol. Drugs were added only at time 0."}, "[10]": {"conditions": "cells counted at day 7, low dose TSA"}, "[11]": {"conditions": "cells counted on day 7, 1 μM retinoic acid, low dose TSA"}}}
{"smiles": "CC(/C=C/C(=O)NO)=C\\[C@@H](C)C(=O)c1ccc(N(C)C)cc1", "note": "[TSA, trichostatin A]", "values": [{"measurement": "inhibition of cell growth, high dose TSA (FIG. 7)", "setting": "[1]; cells counted at day 7, TSA 100 ng/ml", "value": "roughly 100%"}, {"measurement": "inhibition of cell growth (FIG. 7)", "setting": "[1]; [10]", "value": "20-25%"}, {"measurement": "inhibition of cell growth (FIG. 12)", "setting": "[1]; [11]", "value": "approximately 25%"}, {"measurement": "inhibition of cell growth, high dose TSA (FIG. 12)", "setting": "[1]; cells counted on day 7, high dose TSA", "value": "greater than 95%"}, {"measurement": "inhibition of cell growth (FIG. 2)", "setting": "[2]", "value": "about 50%"}, {"measurement": "inhibition of cell growth (FIG. 8)", "setting": "[3]; [11]", "value": "60-65%"}, {"measurement": "inhibition of cell growth, high dose TSA (FIG. 8)", "setting": "[3]; cells counted on day 7, TSA 100 ng/ml", "value": "extremely effective in inhibiting kidney cancer cell growth"}, {"measurement": "inhibition of cell growth (FIG. 20)", "setting": "[4]", "value": "approximately 20%"}, {"measurement": "inhibition of cell growth (FIG. 6)", "setting": "[5]; cells counted at day 7, retinoic acid", "value": "80-90%"}, {"measurement": "inhibition of cell growth (FIG. 9)", "setting": "[5]; cells counted on day 7, 1 μM retinoic acid", "value": "approximately 75%"}, {"measurement": "growth inhibition, high dose TSA (FIG. 3)", "setting": "[6]; TSA 100 ng/ml", "value": "complete growth inhibition"}, {"measurement": "inhibition of cell growth (FIG. 1)", "setting": "[6]; day 7, 1 μM retinoic acid, 1 μM ATRA-IV, 2 ng/ml TSA, 500 μM phenylbutyrate, drugs added days 0, 3, 5", "value": "did not inhibit cell growth"}, {"measurement": "comparison of cell growth reduction between treatments (FIG. 3)", "setting": "[6]; days 3, 5, 7", "value": "better in reducing cell growth than phenylbutyrate"}, {"measurement": "toxicity, histologic analysis of the liver, lung, spleen and kidneys", "setting": "[7]; nu/nu mice, tail vein injection Mon/Wed/Fri for eight weeks", "value": "lack of toxicity"}, {"measurement": "inhibition of tumor growth compared to control (FIG. 16)", "setting": "[7]; tail vein injection Mon/Wed/Fri, eighth week of treatment, LipoATRA 7.4-8.1 mg/kg, TSA 34-41 μg/ml", "value": 38, "unit": "%"}]}
{"smiles": "CCCC(CCC)C(=O)O", "note": "[Valproic acid]", "values": [{"measurement": "inhibition at 0.5 µM", "setting": "[8]", "value": "~40", "unit": "%"}]}
{"smiles": "CC1=C(/C=C/C(C)=C/C=C/C(C)=C/C(=O)O)C(C)(C)CCC1", "note": "[retinoic acid, 3, 7 dimethyl-9-(2,6,6-trimethyl-1-cyclohenen-1-yl)-2,4,6,8,-nonatetraenoic acid]", "values": [{"measurement": "inhibition at 1 µM", "setting": "[1]; Homo sapiens, 168 h, read-out: inhibition of cell growth (FIG. 12)", "value": 12.5, "unit": "%"}, {"measurement": "inhibition of cell growth (FIG. 7)", "setting": "[1]; [10]", "value": "~10", "unit": "%"}, {"measurement": "inhibition at 1 µM", "setting": "[2]; Homo sapiens, HMEC, read-out: inhibition of cell growth (FIG. 2)", "value": "~50", "unit": "%"}, {"measurement": "inhibition at 1 µM", "setting": "[9]", "value": "35 to 40", "unit": "%"}, {"measurement": "inhibition at 1 µM", "setting": "[3]; Homo sapiens, 168 h, read-out: inhibition of cell growth (FIG. 8)", "value": "55 to 60", "unit": "%"}, {"measurement": "inhibition of cell growth (FIG. 20)", "setting": "[4]", "value": "approximately 20%"}, {"measurement": "inhibition at 1 µM", "setting": "[8]", "value": 25, "unit": "%"}, {"measurement": "inhibition at 1 µM", "setting": "[6]; Homo sapiens, 168 h, day 7, 1 μM retinoic acid, 1 μM ATRA-IV, 2 ng/ml TSA, 500 μM phenylbutyrate, drugs added days 0, 3, 5, read-out: inhibition of cell growth (FIG. 1)", "value": "~20", "unit": "%"}]}
{"smiles": "CC1=C(/C=C/C(C)=C/C=C/C(C)=C/CO)C(C)(C)CCC1", "note": "[retinol]", "values": [{"measurement": "inhibition at 1 µM", "setting": "[9]", "value": "35 to 40", "unit": "%"}, {"measurement": "inhibition of cell growth (FIG. 20)", "setting": "[4]", "value": "approximately 20%"}, {"measurement": "inhibition at 1 µM", "setting": "[8]", "value": "~27", "unit": "%"}]}
